The record followed here is US20250195511A1, “INDAZOLE DERIVATIVES USEFUL AS INHIBITORS OF NOD-LIKE RECEPTOR PROTEIN 3” (Merck Sharp & Dohme LLC, priority 2023, published 2025).

In this test the test system is NLRP3 inflammasome. Put plainly: NLRP3 inflammasome activation: ASC-SPECK formation in gramicidin-stimulated THP-1 cells. To be noted: Homo sapiens, THP-1, inhibition of ASC SPECK formation; PMA-treated human monocytic THP-1 cells, compound 1 h before 12.5 μg/ml gramicidin, 3-hour treatment. The test is classed as cell-based. In outline:
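Undifferentiated human THP-1 cells primed overnight with 10 ng/ml PMA, then given compounds 1 h before 12.5 μg/ml gramicidin for 3 h at 37° C in RPMI with 0.01% BSA. Fixed cells immunostained for ASC with DRAQ5 nuclear counterstain; DRAQ5-positive cells with ASC specks counted by high-content imaging; EC50 from curve fitting.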

The term EC50 denotes the concentration giving half of the maximal effect.

In the case of `Cc1cc(C(F)(F)F)cc(O)c1-c1cnc2cn(C34COC(C)(C3)C4)nc2n1` [Example 27, 3-methyl-2-[2-(1-methyl-2-oxabicyclo[2.1.1]hexan-4-yl)pyrazolo[3,4-b]pyrazin-6-yl]-5-(trifluoromethyl)phenol], the EC50 was 193 nM.
As to `Cc1cc(C(F)(F)F)cc(O)c1-c1cnc2cn(C34CCC(O)(CC3)C4)nc2n1` [Example 28, 4-[6-[2-hydroxy-6-methyl-4-(trifluoromethyl)phenyl]pyrazolo[3,4-b]pyrazin-2-yl]norboman-1-ol], the EC50 worked out at 55 nM.
`Cc1cc(C(F)(F)F)cc(O)c1-c1cnc2cn([C@]3(C)CCS(=O)(=O)C3)nc2n1` [Example 29, 3-methyl-2-[2-[(3R)-3-methyl-1,1-dioxo-thiolan-3-yl]pyrazolo[3,4-b]pyrazin-6-yl]-5-(trifluoromethyl)phenol]: the EC50 worked out at 232 nM.
As to `Cc1cc(C(F)(F)F)cc(O)c1-c1cnc2cn([C@@H]3CCS(=O)(=O)C3)nc2n1` [Example 30, 2-[2-[(3R)-1,1-dioxothiolan-3-yl]pyrazolo[3,4-b]pyrazin-6-yl]-3-methyl-5-(trifluoromethyl)phenol], the EC50 was found to be 407 nM.
`Cc1cc(C(F)(F)F)cc(O)c1-c1cnc2cn([C@H]3CCS(=O)(=O)C3)nc2n1` [Example 31, 2-[2-[(3S)-1,1-dioxothiolan-3-yl]pyrazolo[3,4-b]pyrazin-6-yl]-3-methyl-5-(trifluoromethyl)phenol]: the EC50 turned out to be 265 nM.
Take `Cc1cc(C(F)(F)F)cc(O)c1-c1cnc2cn([C@H]3COC[C@@H]3O)nc2n1` [Example 32, (3R,4S)-4-[6-[2-hydroxy-6-methyl-4-(trifluoromethyl)phenyl]pyrazolo[3,4-b]pyrazin-2-yl]tetrahydrofuran-3-ol]: the EC50 came to 34 nM.
The figure for `Cc1cc(C(F)(F)F)cc(O)c1-c1cnc2cn([C@@H]3COC[C@H]3O)nc2n1` [Example 33, (3S,4R)-4-[6-[2-hydroxy-6-methyl-4-(trifluoromethyl)phenyl]pyrazolo[3,4-b]pyrazin-2-yl]tetrahydrofuran-3-ol] is 71 nM.
Turning to `Cc1cc(C(F)(F)F)cc(O)c1-c1cnc2cn([C@@H]3COCC[C@H]3O)nc2n1` [Example 34, (3R,4R)-3-[6-[2-hydroxy-6-methyl-4-(trifluoromethyl)phenyl]pyrazolo[3,4-b]pyrazin-2-yl]tetrahydropyran-4-ol], the EC50 was determined as 44 nM.
As to `Cc1cc(C(F)(F)F)cc(O)c1-c1cnc2cn([C@H]3COCC[C@@H]3O)nc2n1` [Example 35, (3S,4S)-3-[6-[2-hydroxy-6-methyl-4-(trifluoromethyl)phenyl]pyrazolo[3,4-b]pyrazin-2-yl]tetrahydropyran-4-ol], the EC50 is 37 nM.
The figure for `Cc1cc(C(F)(F)F)cc(O)c1-c1cnc2cn([C@H]3C[C@H](C#N)C3)nc2n1` [Example 36, (1R,3R)-3-(6-(2-hydroxy-6-methyl-4-(trifluoromethyl)phenyl)-2H-pyrazolo[3,4-b]pyrazin-2-yl)cyclobutane-1-carbonitrile] is 18 nM; for `COCC12CC(n3cc4ncc(-c5c(C)cc(C(F)(F)F)cc5O)nc4n3)(C1)C2` [Example 37, 2-[2-[3-(methoxymethyl)-1-bicyclo[1.1.1]pentanyl]pyrazolo[3,4-b]pyrazin-6-yl]-3-methyl-5-(trifluoromethyl)phenol] it is 220 nM; for `COC12CC(n3cc4ncc(-c5c(C)cc(C(F)(F)F)cc5O)nc4n3)(C1)C2` [Example 38, 2-[2-(3-methoxy-1-bicyclo[1.1.1]pentanyl)pyrazolo[3,4-b]pyrazin-6-yl]-3-methyl-5-(trifluoromethyl)phenol] it is 141 nM.
The figure for `Cc1cc(C(F)(F)F)cc(O)c1-c1cnc2cn(C34CC(C(F)F)(C3)C4)nc2n1` [Example 39, 2-[2-[3-(difluoromethyl)-1-bicyclo[1.1.1]pentanyl]pyrazolo[3,4-b]pyrazin-6-yl]-3-methyl-5-(trifluoromethyl)phenol] is 90 nM; for `Cc1cc(C(F)(F)F)cc(O)c1-c1cnc2cn([C@H]3CC[C@H](C#N)CC3)nc2n1` [Example 40, (1R,4R)-4-(6-(2-hydroxy-6-methyl-4-(trifluoromethyl)phenyl)-2H-pyrazolo[3,4-b]pyrazin-2-yl)cyclohexane-1-carbonitrile] it is 81 nM; for `Cc1cc(C(F)(F)F)cc(O)c1-c1cnc2cn(C34COC(CO)(C3)C4)nc2n1` [Example 41, 2-[2-[1-(hydroxymethyl)-2-oxabicyclo[2.1.1]hexan-4-yl]pyrazolo[3,4-b]pyrazin-6-yl]-3-methyl-5-(trifluoromethyl)phenol] it is 78 nM.
`Cc1cc(C(F)(F)F)cc(O)c1-c1cnc2cn(C34CCC(C3)C4)nc2n1` [Example 42, 2-[2-(1-bicyclo[2.1.1]hexanyl)pyrazolo[3,4-b]pyrazin-6-yl]-3-methyl-5-(trifluoromethyl)phenol]: the concentration for a half-maximal effect (EC50) turned out to be 70 nM.
The figure for `Cc1cc(C(F)(F)F)cc(O)c1-c1cnc2cn(C34CC(CO)(C3)C4)nc2n1` [Example 43, 2-[2-[3-(hydroxymethyl)-1-bicyclo[1.1.1]pentanyl]pyrazolo[3,4-b]pyrazin-6-yl]-3-methyl-5-(trifluoromethyl)phenol] is 26 nM; for `Cc1cc(C(F)(F)F)cc(O)c1-c1cnc2cn([C@H]3CC[C@@H](O)CC3)nc2n1` [Example 44, 2-(2-((1S,4S)-4-hydroxycyclohexyl)-2H-pyrazolo[3,4-b]pyrazin-6-yl)-3-methyl-5-(trifluoromethyl)phenol] it is 121 nM; for `Cc1cc(C(F)(F)F)cc(O)c1-c1cnc2cn(C3CC4CCC(C3)O4)nc2n1` (stereo not shown) [Example 45, 3-methyl-2-[2-(8-oxabicyclo[3.2.1]octan-3-yl)pyrazolo[3,4-b]pyrazin-6-yl]-5-(trifluoromethyl)phenol] it is 70 nM.
With `Cc1cc(C(F)(F)F)cc(O)c1-c1cnc2cn(C34CC(CC#N)(C3)C4)nc2n1` [Example 46, 2-[3-[6-[2-hydroxy-6-methyl-4-(trifluoromethyl)phenyl]pyrazolo[3,4-b]pyrazin-2-yl]-1-bicyclo[1.1.1]pentanyl]acetonitrile], the EC50 turned out to be 213 nM.
The figure for `Cc1cc(C(F)(F)F)cc(O)c1-c1cnc2cn(C34CCC(C#N)(C3)C4)nc2n1` [Example 47, 4-[6-[2-hydroxy-6-methyl-4-(trifluoromethyl)phenyl]pyrazolo[3,4-b]pyrazin-2-yl]bicyclo[2.1.1]hexane-1-carbonitrile] is 61 nM; for `Cc1cc(C(F)(F)F)cc(O)c1-c1cnc2cn(C34CC(F)(C3)C4)nc2n1` [Example 48, 2-[2-(3-fluoro-1-bicyclo[1.1.1]pentanyl)pyrazolo[3,4-b]pyrazin-6-yl]-3-methyl-5-(trifluoromethyl)phenol] it is 65 nM; for `Cc1cc(C(F)(F)F)cc(O)c1-c1cnc2cn([C@H]3C[C@H](Cl)C3)nc2n1` [Example 49, 2-(2-((1R,3R)-3-chlorocyclobutyl)-2H-pyrazolo[3,4-b]pyrazin-6-yl)-3-methyl-5-(trifluoromethyl)phenol] it is 31 nM.
The figure for `Cc1cc(C(F)(F)F)cc(O)c1-c1cnc2cn([C@@H]3C[C@H]3C)nc2n1` [Example 50, 3-methyl-2-[2-[(1R,2R)-2-methylcyclopropyl]pyrazolo[3,4-b]pyrazin-6-yl]-5-(trifluoromethyl)phenol] is 103 nM; for `Cc1cc(C(F)(F)F)cc(O)c1-c1cnc2cn(C3(C)CCOCC3)nc2n1` [Example 51, 3-methyl-2-[2-(4-methyltetrahydropyran-4-yl)pyrazolo[3,4-b]pyrazin-6-yl]-5-(trifluoromethyl)phenol] it is 142 nM; for `Cc1cc(C(F)(F)F)cc(O)c1-c1cnc2cn([C@H]3C[C@@H]3C)nc2n1` [Example 52, 3-methyl-2-[2-[(1S,2S)-2-methylcyclopropyl]pyrazolo[3,4-b]pyrazin-6-yl]-5-(trifluoromethyl)phenol] it is 40 nM.
`Cc1cc(Cl)cc(O)c1-c1cnc2cn([C@H]3C[C@H](F)C3)nc2n1` [Example 55, 5-chloro-2-(2-((1R,3R)-3-fluorocyclobutyl)-2H-pyrazolo[3,4-b]pyrazin-6-yl)-3-methylphenol]: the EC50 is 27 nM.
The figure for `Cc1cc(Cl)cc(O)c1-c1cnc2cn([C@@H]3[C@@H]4COC[C@@H]43)nc2n1` [Example 56, 2-(2-((1R,5S,6S)-3-oxabicyclo[3.1.0]hexan-6-yl)-2H-pyrazolo[3,4-b]pyrazin-6-yl)-5-chloro-3-methylphenol] is 42 nM.
The figure for `Cc1cc(Cl)cc(O)c1-c1cnc2cn([C@H]3[C@@H]4COC[C@@H]43)nc2n1` [Example 57, 2-(2-((1R,5S,6R)-3-oxabicyclo[3.1.0]hexan-6-yl)-2H-pyrazolo[3,4-b]pyrazin-6-yl)-5-chloro-3-methylphenol] is 60 nM; for `CCN1C[C@H](Cn2cc3ncc(-c4c(C)cc(C(F)(F)F)cc4O)nc3n2)OC1=O` [Example 110, (R)-3-ethyl-5-((6-(2-hydroxy-6-methyl-4-(trifluoromethyl)phenyl)-2H-pyrazolo[3,4-b]pyrazin-2-yl)methyl)oxazolidin-2-one] it is 168 nM; for `Cc1cc(C(F)(F)F)cc(O)c1-c1cnc2nn([C@H]3C[C@H](F)C3)nc2n1` [Example 121, 2-(2-((1R,3R)-3-fluorocyclobutyl)-2H-[1,2,3]triazolo[4,5-b]pyrazin-5-yl)-3-methyl-5-(trifluoromethyl)phenol] it is 411 nM.
